Results as given in patent publication US7291499B2, “Transformed cell, method of screening anti-aging agent and anti-aging agent” (priority 2001, dated 2007).

What was measured:
[1] = system: WI-38 cell with activated Raf kinase region-estrogen receptor fusion gene; assay: Cell growth in tamoxifen-inducible activated Raf cellular senescence system; format: cell-based, human; conditions: for inhibition of the termination of cell growth induced by the activation of Raf: Raf activated by 10 nM tamoxifen, 25 μM inhibitor added simultaneously
Description: (§1) This is a result of fusing an estrogen receptor gene with a sequence coding for the kinase region of activated Raf gene.
(§2) (1) In accordance with the aforementioned method, induction of cellular senescence was tested by carrying out gene transfer into the WI-38 cell and thereby constructing a system which can induce cellular senescence by the administration of tamoxifen.
(§3) The results are shown in FIG. 12, FIG. 13, FIG. 14 and FIG. 15.

[2] = system: WI-38 cell with activated Raf kinase region-estrogen receptor fusion gene; assay: β-galactosidase positive cells in tamoxifen-inducible activated Raf cellular senescence system; format: cell-based, human; conditions: for inhibition of the increase of cellular senescence-specific β-galactosidase positive cell induced by the activation of Raf: Raf activated by 10 nM tamoxifen, 25 μM inhibitor added simultaneously
Description: as §1, §2, §3

[3] = system: human normal fibroblast WI-38; assay: Cell growth curve (WST-1 relative cell number) of young and senescent WI-38 cells with p38 protein inhibitor; format: cell-based
Description: In the example, effect of a p38 protein inhibitor SB203580 was compared using the same young cell (42 times of division) and senescent cell (61 times of division) of the human normal fibroblast WI-38 used in Reference Example 1. Specifically, the same procedure of the following Example 2 (2) was repeated, except that a young cell (42 times of division) and a senescent cell (61 times of division) of the human normal fibroblast WI-38 cultured in the same manner in Reference Example 1(1) were used instead of the transformed cell.
In FIG. 3, the polygonal line a is cell growth curve of the young cell in the presence of SB203580, the polygonal line b is cell growth curve of the young cell in the absence of SB203580, the polygonal line c is cell growth curve of the senescent cell in the presence of SB203580 and the polygonal line d is cell growth curve of the senescent cell in the absence of SB203580. The symbol “+SB” in FIG. 3 means that it was treated with 10 μmol//L of SB203580.
The relative number of cells during these 6 days was measured every other day using a commercially available kit [Cell Counting Kit (WST-1 assay), manufactured. by DOJINDO].
The WST-1 assay is a method to know indirectly degree of cell growth ability with the use of the calorimetric determination of the activity of dehydration reactions wherein intracellular lactate dehydrogenase and the like are related.
Measurement and calculation of the relative cell number were specifically carried out by the following method. That is, 1,000 cells per each well of a 96 well plate were precultured for 24 hours. […] After the reaction, measurement was carried out using a plate reader (measuring wave length=450 nm). These were measured on three samples on each of the measuring days (on the 0th, 2nd, 4th and 6th days) during the growth period, and the average values were used as the data of respective measuring days. The relative number of cells of measured values on respective measuring days was calculated by defining the average of measured values on the 0th day as 1.

[4] = system: human normal fibroblast WI-38; assay: Ratio of S phase cell by FACS analysis (BrdU labeling) in young and senescent WI-38 cells; format: cell-based
Description: Also, the ratio of S phase cells in each treated group was determined by FACS analysis in accordance with the procedure described in the following Example 2(3-a), and the results shown in FIG. 4. The symbol “+” in FIG. 4 means that it was treated with 10 μmol//L of SB203580.
[…] Next, the cells were fixed with 70% ethanol and treated with 2 mol//L hydrochloric acid for 30 minutes. Subsequently, they were neutralized with 0.1 mol//L sodium borate and then allowed to react with FITC-labeled anti-BrdU antibody (manufactured by BECTON DICKINSON) for 1 hour. After completion of the reaction, the cells were washed with a washing buffer [PBS containing 0.5% Tween 20 and 1% bovine serum albumin (BSA)] and suspended in a PBS solution containing 5 μg/ml ProPidium Iodide (PI). The samples were analyzed by a two dimensional flow cytometry.

[5] = system: human normal fibroblast WI-38; assay: Cell morphology and cellular senescence-specific β-galactosidase activity in WI-38 cells; format: cell-based; conditions: senescent cell (61 times of division), SB203580-treated
Description: Specifically, young and senescent cells of the human normal fibroblast WI-38 were respectively washed with PBS and then fixed using 0.5% glutaraldehyde aqueous solution. After the fixation, the cells were soaked in a staining solution [prepared by dissolving 1 mg/ml of X-gal (5-bromo-4-chloro-3-indolyl-[…]), 5 mmol//L potassium ferrocyanide, 5 mmol//L potassium feriocyanide and 1 mmol//L magnesium chloride in phosphate buffered saline (PBS; pH 6.0)] and allowed to react at 37° C. for 5 hours or more.
In addition, cell morphology and β-galactosidase activity in each treated group were analyzed in accordance with the procedure described in Reference Example 1(2).

[6] = system: MKK6 gene- or MKK6EE gene-introduced human normal fibroblast WI-38; assay: Ratio of β-galactosidase positive cells in MKK6 or MKK6EE gene-introduced transformed cell; format: cell-based; conditions: 10 μmol//L SB203580, culturing period of 6 days
Description: Specifically, young and senescent cells of the human normal fibroblast WI-38 were respectively washed with PBS and then fixed using 0.5% glutaraldehyde aqueous solution. After the fixation, the cells were soaked in a staining solution [prepared by dissolving 1 mg/ml of X-gal (5-bromo-4-chloro-3-indolyl-β-galactosidase), 5 mmol//L potassium ferrocyanide, 5 mmol//L potassium feriocyanide and 1 mmol//L magnesium chloride in phosphate buffered saline (PBS; pH 6.0)] and allowed to react at 37° C. for 5 hours or more.
Next, the procedure described in Reference Example 1 (2) was repeated, except that the two species of the transformed cell of the present invention and one species of a control cell wherein the vector alone was introduced, obtained by repeating the same procedure of Example 2(1), (cells after a culturing period of 6 days in each case; SB203580-untreated cells) and the two species of the transformed cell of the present invention and one species of a control cell wherein the vector alone was introduced, obtained by repeating the same procedure of Example 2(2), (cells after a culturing period of 6 days in each case; SB203580-treated cells) were used. […]

[7] = system: MKK6 gene- or MKK6EE gene-introduced human normal fibroblast WI-38; conditions: 10 μmol//L SB203580 from the 4th day after infection, 6 days culture
Description: As the target cell, young cell (42 PD; 5×10^5 cells/10 cm dish) of the human normal fibroblast WI-38 was cultured for 8 hours in the virus supernatant to which polybrene (final concentration=8 μg/ml) had been added. The virus supernatant was once removed, and then fresh virus supernatant [containing polybrene (final concentration=8 μg/ml)] was again added, followed by the culturing for 8 hours. Each of the infection-treated cells was cultured for 3 days in DMEM containing puromycin (2.5 μg/ml).
On the 4th day after carrying out the infection, the medium was changed to DMEM containing 2.5% dimethyl sulfoxide (DMSO), followed by the culturing for 6 days. […] The relative number of cells during these 6 days was measured every other day using a commercially available kit [Cell Counting Kit (WST-1 assay), manufactured. by DOJINDO].
Measurement and calculation of the relative cell number were specifically carried out by the following method. […] After the reaction, measurement was carried out using a plate reader (measuring wave length=450 nm). These were measured on three samples on each of the measuring days (on the 0th, 2nd, 4th and 6th days) during the growth period, and the average values were used as the data of respective measuring days. The relative number of cells of measured values on respective measuring days was calculated by defining the average of measured values on the 0th day as 1. […]

[8] = system: phosphorylation type p38 protein (active type p38 protein); assay: Western blotting of phosphorylated state of p38 protein; format: cell-based, human; conditions: young cell (42 PD), 30 μmol//L anisomycin for 30 minutes, positive control, versus untreated young cell
Description: In this reference example, the phosphorylated state of p38 protein in young and senescent cells of the human normal fibroblast WI-38 was confirmed by a Western blotting respectively using an antibody capable of detecting total p38 protein and another antibody capable of specifically detecting a phosphorylation type p38 protein (namely active type p38 protein) alone.
Specifically, young and senescent cells of the human normal fibroblast WI-38 (about 5×10^6 cells) cultured in the same manner as in Reference Example 1(1) were respectively dissolved in 0.1 ml of a buffer solution for dissolution [lysis buffer; 150 mmol//L sodium chloride, 0.5% NP-40, 50 mmol//L Tris-HCl (pH 7.5), 3 mmol//L EDTA, 3 mmol//L EGTA, 3 mmol//L glycerophosphate, […] Na3VO4, 1 μg/ml leupeptin and 1 mmol//L phenylmethanesulfonyl fluoride (PMSF)].
Subsequently, each extraction sample corresponding to 30 μg as the amount of protein was separated by an SDS polyacrylamide gel electrophoresis in the usual way and then transferred on a membrane (Immobilon-P membrane; manufactured by Millipore). After subjecting the membrane to a blocking treatment using a commercially available blocking agent (Block Ace; manufactured. by Dainippon Pharmaceutical), a primary antibody reaction and a secondary antibody reaction were carried out in order. […]

[9] = induction of cellular senescence via Raf-estrogen receptor fusion
[10] = young cell (42 times of division), 10 μmol//L SB203580, same in presence or absence

## CC/C(=C(\c1ccccc1)c1ccc(OCCN(C)C)cc1)c1ccccc1 [tamoxifen]
[1]; [9]
  tamoxifen concentration at which termination of cell growth was observed: ≥ 1 nM
[2]; [9]
  tamoxifen concentration at which increase of cellular senescence-specific β-galactosidase positive cell was observed: ≥ 1 nM

## C[S+]([O-])c1ccc(-c2nc(-c3ccc(F)cc3)c(-c3ccncc3)[nH]2)cc1 (stereo not shown) [SB203580, 4-[4-(4-fluorophenyl)-2-[4-(methylsulfinyl)phenyl]-1H-imidazol-5-yl]-pyridine]
[3]; senescent cell (61 PD) of WI-38, illustrative data not shown
  anti-aging activity upon senescent cell: showed the anti-aging activity
[3]; senescent cell (61 times of division), 10 μmol//L SB203580
  cell growth in comparison with the untreated case: accelerated growth
[3]; [10]
  doubling time: about 2 days
[4]; senescent cell (61 times of division), 10 μmol//L SB203580, 72 hours of BrdU labeling, untreated about 5%
  S phase cell: about 25%
[4]; [10]
  S phase cell: about 20%
[5]
  cellular senescence-specific β-galactosidase-positive degree: low
  morphology of the flat cytoplasm: became thin
[6]
  increase of the cellular senescence-specific β-galactosidase positive cells: inhibited
[1]
  inhibition of the termination of cell growth induced by the activation of Raf: more strongly than the PD98059
[2]
  inhibition of the increase of cellular senescence-specific β-galactosidase positive cell induced by the activation of Raf: more strongly than the PD98059
[7]
  growth inhibitory effect by the MKK6 gene or MKK6EE gene: inhibited

## COc1cccc(-c2cc(=O)c3ccccc3o2)c1N [PD98059]
[1]
  inhibition of the termination of cell growth induced by the activation of Raf: partially inhibited
[2]
  inhibition of the increase of cellular senescence-specific β-galactosidase positive cell induced by the activation of Raf: partially inhibited

## COc1ccc(C[C@H]2NC[C@H](O)[C@H]2OC(C)=O)cc1 [anisomycin]
[8]
  active type p38 protein amount: increased
